Measurements reported in the supplement of paper PMC10307832.

Experiments:
Test in all cases: relative viability (nuclei count vs DMSO), 5 days (fraction); higher = more cells survive
[1] = compound: Cn1c(=O)n(-c2ccc(C(C)(C)C#N)cc2)c2c3cc(-c4cnc5ccccc5c4)ccc3ncc21 [Dactolisib] + O=C(c1cc(Cc2n[nH]c(=O)c3ccccc23)ccc1F)N1CCN(C(=O)C2CC2)CC1 [Olaparib] (partner 8 µM)
Method in brief: (§1)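 Five library-drug doses in √10 steps were combined with a fixed anchor-drug dose, or a single drug was given alone, by pin tool to lung cancer cell lines in 1536-well plates the day after seeding. Nuclei were stained and counted after 5 days. Relative viability is the nuclei count in treated wells over that in vehicle wells, taken as the median of duplicate plates.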

[2] = compound: Cn1c(=O)n(-c2ccc(C(C)(C)C#N)cc2)c2c3cc(-c4cnc5ccccc5c4)ccc3ncc21 [Dactolisib] + C[C@@H](Oc1cc(-c2cnn(C3CCNCC3)c2)cnc1N)c1c(Cl)ccc(F)c1Cl [Crizotinib] (partner 1 µM)
Method in brief: as §1

[3] = compound: C1CCC(CC1)N(CCNCCC2=C3C(=C(C=C2)O)NC(=O)CO3)C(=O)CCNCCC4=CC(=C(C=C4)Cl)Cl [AZ505] + C[C@]1(O)C[C@@H](c2nc(-c3ccc4ccc(-c5ccccc5)nc4c3)c3c(N)nccn32)C1 [Linsitinib] (partner 1 µM)
Method in brief: as §1

[4] = compound: Cn1c(=O)n(-c2ccc(C(C)(C)C#N)cc2)c2c3cc(-c4cnc5ccccc5c4)ccc3ncc21 [Dactolisib] + Nc1nc2[nH]cc(CCc3ccc(C(=O)N[C@@H](CCC(=O)O)C(=O)O)cc3)c2c(=O)[nH]1 [Pemetrexed] (partner 0.2 µM)
Method in brief: as §1

Row | Cell Line | relative viability ([1]; first compound 0.002 µM) | relative viability ([1]; first compound 0.006325 µM) | relative viability ([1]; first compound 0.02 µM) | relative viability ([1]; first compound 0.06325 µM) | relative viability ([1]; first compound 0.2 µM) | relative viability ([2]; first compound 0.002 µM) | relative viability ([2]; first compound 0.006325 µM) | relative viability ([2]; first compound 0.02 µM) | relative viability ([2]; first compound 0.06325 µM) | relative viability ([2]; first compound 0.2 µM) | relative viability ([3]; first compound 0.08 µM) | relative viability ([3]; first compound 0.253 µM) | relative viability ([3]; first compound 0.8 µM) | relative viability ([3]; first compound 2.53 µM) | relative viability ([3]; first compound 8 µM) | relative viability ([4]; first compound 0.002 µM) | relative viability ([4]; first compound 0.006325 µM) | relative viability ([4]; first compound 0.02 µM) | relative viability ([4]; first compound 0.06325 µM) | relative viability ([4]; first compound 0.2 µM)
1 | NCI-H1437 | 0.686 | 0.6 | 0.629 | 0.64 | 0.543 | 1.03 | 0.904 | 0.902 | 0.699 | 0.865 | 1.02 | 1.15 | 1.08 | 1.08 | 1.03 | 0.309 | 0.347 | 0.312 | 0.27 | 0.227
2 | LU99A | 0.208 | 0.232 | 0.216 | 0.181 | 0.172 | 0.548 | 0.446 | 0.335 | 0.272 | 0.231 | 0.524 | 0.647 | 0.507 | 0.573 | 0.565 | 0.152 | 0.197 | 0.2 | 0.178 | 0.18
3 | HCC-827 | 0.601 | 0.611 | 0.608 | 0.479 | 0.411 | 0.978 | 0.897 | 0.992 | 0.809 | 0.506 | 0.923 | 0.958 | 0.856 | 0.977 | 0.964 | 0.216 | 0.222 | 0.219 | 0.213 | 0.145
4 | LK-2 | 0.61 | 0.836 | 0.491 | 0.328 | 0.17 | 0.209 | 0.244 | 0.266 | 0.213 | 0.216 | 0.408 | 0.703 | 0.578 | 0.427 | 0.812 | 0.278 | 0.263 | 0.249 | 0.117 | 0.171
